Source: PubChem BioAssay (NCI)
Where “and” joins values, the source holds several entries; their conditions need not be identical. Equal values may be shown once.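 Five concentrations, 48 hours, 96-well plates. At the TGI there is no net growth.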

What was measured:
Assay in all cases: NCI tumour cell line growth inhibition, 48 h
[1] = tested on: 786-0 renal
[2] = tested on: HCT-116 colon
[3] = tested on: HS 578T breast
[4] = tested on: LOX IMVI melanoma
[5] = tested on: MALME-3M melanoma
[6] = tested on: NCI-H226 lung
[7] = tested on: NCI-H460 lung
[8] = tested on: NCI-H522 lung
[9] = tested on: NCI/ADR-RES ovarian
[10] = tested on: OVCAR-3 ovarian
[11] = tested on: OVCAR-4 ovarian
[12] = tested on: OVCAR-8 ovarian
[13] = tested on: SK-MEL-28 melanoma
[14] = tested on: SNB-19 CNS
[15] = tested on: SNB-75 CNS
[16] = tested on: U251 CNS
[17] = tested on: UACC-62 melanoma
[18] = tested on: BT-549 breast
[19] = tested on: HOP-92 NSCLC
[20] = tested on: SR leukemia

Row | SMILES | TGI [1] | TGI [2] | TGI [3] | TGI [4] | TGI [5] | TGI [6] | TGI [7] | TGI [8] | TGI [9] | TGI [10] | TGI [11] | TGI [12] | TGI [13] | TGI [14] | TGI [15] | TGI [16] | TGI [17] | TGI [18] | TGI [19] | TGI [20]
1 | Cc1nnc(Nc2ccc(Cl)cc2)o1 | > 10 µM | > 10 µM | > 10 µM | > 10 µM | > 10 µM | > 10 µM | > 10 µM | > 10 µM | > 10 µM | > 10 µM | > 10 µM | > 10 µM | > 10 µM | > 10 µM | > 10 µM | > 10 µM | > 10 µM | – | – | –
2 | Cc1ccc(S(=O)(=O)Nn2c(-c3ccccc3)c(C#N)c(-c3ccc(Cl)cc3)c(C#N)c2=O)cc1 | 30.9 µM | 37.3 µM | – | 52.2 µM | – | – | > 100 µM | – | – | – | > 100 µM | – | 78.5 µM | > 100 µM | – | 55.1 µM | 33 µM | 61.2 µM | 79.7 µM | –
3 | CC(=O)c1ccc(-c2oc(-c3ccccc3)cc2-c2ccc3c(c2)OCO3)s1 | > 100 µM | > 100 µM | > 100 µM | – | – | > 100 µM | > 100 µM | – | > 100 µM | > 100 µM | – | > 100 µM | – | – | > 100 µM | > 100 µM | > 100 µM | – | > 100 µM | > 100 µM
4 | CN(C)CCOc1cc2c(c3ccccc13)-c1ccccc1C2=O | – | 2.93 µM | – | 2.53 µM | 5.15 µM | 5.69 µM | 2.34 µM | 3.08 µM | 2.64 µM | 4.99 µM | 2.68 µM | 3.23 µM | 3.27 µM | 8.39 µM | 4.64 µM | 6.58 µM | 2.97 µM | – | 4.25 µM | –
5 | COC(=O)[C@@H]1O[C@]12C(CO[Si](C)(C)C(C)(C)C)OC(n1ccc(=O)[nH]c1=O)C2O[Si](C)(C)C(C)(C)C (stereo partly specified) | > 100 µM | > 100 µM | – | 42.5 µM | – | 30.7 µM | > 100 µM | 45.4 µM | > 100 µM | 30.8 µM | > 100 µM | > 100 µM | 59 µM | > 100 µM | > 100 µM | > 100 µM | 72.7 µM | 47.7 µM | 88.1 µM | –
6 | CCOC(=O)Cn1c(=O)c2nc(SC)sc2n(-c2ccc(C)cc2)c1=S | 49.1 µM | > 100 µM | > 66.5 µM | > 100 µM | > 92 µM | 69.6 µM | > 100 µM | > 100 µM | > 100 µM | > 100 µM | 35.2 µM | > 100 µM | > 100 µM | 54.1 µM | 44.2 µM | 71.6 µM | > 100 µM | – | 68.1 µM | > 100 µM
7 | CCC1(O)CC(OC2CC(N(C)C)C(OC3CC(O)C(OC4OC(C)C(=O)C=C4N)C(C)O3)C(C)O2)c2c(O)c3c(c(O)c2C1C(=O)OC)C(=O)c1cccc(O)c1C3=O (stereo unspecified) | 0.133 µM and 0.147 µM | > 100 µM | 0.366 µM and 1.47 µM | 0.613 µM | 0.0947 µM | 0.0806 µM | 0.0151 µM | 0.203 µM | – | 0.15 µM | – | 0.261 µM | 0.17 µM and 0.0205 µM | 0.976 µM | 0.223 µM | 1.08 µM | 0.0375 µM | – | 1.67 µM | –
8 | CC(=O)N1NC(c2ccccc2)=CC(=O)/C1=C/C(=O)c1ccccc1 | > 100 µM | > 100 µM | > 100 µM | > 100 µM | > 100 µM | > 100 µM | > 100 µM | 57.2 µM | > 100 µM | > 100 µM | > 100 µM | > 100 µM | > 100 µM | > 100 µM | – | > 100 µM | > 100 µM | – | > 100 µM | 57.8 µM
9 | COC(=O)/C=C\c1ccc2c(c1)CC1(C2)Cc2ccc(/C=C/C(=O)OC)cc2C1 (stereo unspecified) | > 31.6 µM | > 31.6 µM | > 31.6 µM | > 31.6 µM | > 31.6 µM | > 31.6 µM | > 100 µM | > 31.6 µM | > 31.6 µM | > 31.6 µM | > 31.6 µM | > 31.6 µM | > 100 µM | > 100 µM | > 100 µM | > 31.6 µM | > 31.6 µM | – | > 31.6 µM | > 31.6 µM
10 | O=C(O)C(Cc1cccs1)NC(=O)C(F)(F)F (stereo unspecified) | – | > 100 µM | – | > 100 µM | > 100 µM | > 100 µM | > 100 µM | > 100 µM | > 100 µM | > 100 µM | > 100 µM | > 100 µM | > 100 µM | > 100 µM | > 100 µM | > 100 µM | > 100 µM | – | > 100 µM | –
11 | O=C(Sc1c(-c2ccccc2)c(=O)n(-c2ccccc2)c(=S)n1-c1ccccc1)c1ccc(Cl)cc1 | > 100 µM | > 100 µM | > 100 µM | > 100 µM | > 100 µM | > 100 µM | > 100 µM | > 100 µM | > 100 µM | > 100 µM | > 100 µM | > 100 µM | > 100 µM | > 100 µM | > 100 µM | > 100 µM | > 100 µM | – | > 100 µM | > 100 µM
